Results on two molecules are retold here after ChEMBL document CHEMBL1201862, “PubChem BioAssay data set” (2004).

Molecules are shown by their SMILES.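 Compound exposure: 48 hours, 5 concentrations, 96-well plates. GI50 = concentration required for 50% inhibition of growth.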 The source made the active and inactive calls. Cut-off read from the data, not from the text of the source: active = GI50 up to about 1.1 µM and inactive = higher.

Among the test systems are 786-0; SF-539; HL-60; RXF 393; DLD-1; OVCAR-8; CCRF-CEM; OVCAR-4; BT-549; UO-31; HOP-92; RPMI-8226; NCI-H522; MDA-MB-231; HCC 2998; IGROV-1; COLO 205; SNB-19; MCF7; UACC-257.
Holding throughout (experiment): growth of human tumour cells (NCI), 48 h

For `CC[C@]12C=CCN3CCC4(c5cc([C@@]6(C(=O)OC)CC7CN(CCc8c6[nH]c6ccccc86)C[C@@H]6CCCC[C@H]76)c(OC)cc5N(C)C4[C@](O)(C(=O)OC)C1OC(C)=O)[C@@H]32` (some centres undefined), the GI50 in the experiment on 786-0, in the experiment on SF-539, in the experiment on HL-60, with RXF 393, in the experiment on DLD-1 and with OVCAR-8 was < 10 nM (active) in each case. Further, the GI50 in the experiment with CCRF-CEM was < 10 nM (active); in the experiment with OVCAR-4, 5200 nM (inactive); with BT-549 it was 1320 nM (inactive); in the experiment with UO-31, < 29.9 nM (active); with HOP-92, 25.9 nM (active); with RPMI-8226, < 10 nM (active). The GI50 in the experiment with NCI-H522, in the experiment with MDA-MB-231, in the experiment with HCC 2998, in the experiment on IGROV-1, in the experiment with COLO 205 and in the experiment on SNB-19 was < 10 nM (active) throughout. Also, in the experiment on MCF7, the GI50 is < 10 nM (active).

Take `CC(=O)O[C@@]12CO[C@@H]1C[C@H](O)[C@@]1(C)C(=O)[C@H](O)C3=C(C)[C@@H](OC(=O)[C@H](O)[C@@H](NC(=O)OC(C)(C)C)c4ccccc4)C[C@@](O)([C@@H](OC(=O)c4ccccc4)[C@H]21)C3(C)C` [DOCETAXEL]: the GI50 was < 10 nM (active) in the experiment with 786-0; < 10 nM (active) in the experiment on SF-539; 455 nM (active) with UACC-257; < 63.1 nM (active) with HL-60; 242 nM (active) in the experiment on RXF 393; < 10 nM (active) with DLD-1. In addition, the GI50 in the experiment with OVCAR-8 was < 10 nM (active); with CCRF-CEM, < 10 nM (active); in the experiment on OVCAR-4 it was 21800 nM (inactive); in the experiment with BT-549, 3.42 nM (active); in the experiment with UO-31, 885 nM (active); with HOP-92 it was 9040 nM (inactive). The GI50 in the experiment with RPMI-8226 is < 10 nM (active); in the experiment with NCI-H522 it was < 10 nM (active); in the experiment with MDA-MB-231 it was 21.6 nM (active); in the experiment with HCC 2998, < 10 nM (active); in the experiment with IGROV-1, < 10 nM (active); with COLO 205 it was < 10 nM (active). Further, the GI50 in the experiment with SNB-19 is 43200 nM (inactive); in the experiment on MCF7, 0.409 nM (active).
